Test results: ChEMBL document CHEMBL4266026, “Bisleuconothines B-D, Modified Eburnane-Aspidosperma Bisindole Alkaloids from Leuconotis griffithii” (J Nat Prod, 2018)

What follows are compounds tested on A549 (assay: Cytotoxicity against human A549 cells assessed as cell growth inhibition by MTT assay).
Assay type: functional, cell-based

| SMILES | IC50 |
| --- | --- |
| CC[C@]12C=C(c3ccc(O)c4c3N[C@@H]3CC[C@@]5(CC)CCCN6CC[C@@]43[C@H]65)N3c4ccccc4C(=O)[C@]34CCN(CCC1)[C@H]24 | 33.6 µM |
| CC[C@@]12CCCN3CC[C@]4(c5c(ccc6c5O[C@@]57[C@@H]8N9CCC[C@]8(CC)C[C@@H]6N5c5ccccc5[C@]7(O)CC9)N(C=O)[C@@H]4CC1)[C@H]32 | 36.1 µM |
| CC[C@@]12CCCN3CC[C@]4(c5c(O)ccc([C@H]6C[C@@]7(CC)CCCN8CC[C@]9(C(=O)c%10ccccc%10N69)[C@H]87)c5N[C@@H]4CC1)[C@H]32 | 20.1 µM |
